ChEMBL document CHEMBL3046447, “Insecticidal Activity of α-Methylene-γ-butyrolactone against Several Insect Pests” (1999)

Experiments:
Type in all cases: functional
[1] = system: Frankliniella occidentalis; assay: Insecticidal activity against adult Frankliniella occidentalis (western flower thrips) assessed as mortality at 75 ug/disc after 24 hr relative to control
Plutella xylostella [2] = assay: Insecticidal activity against adult Plutella xylostella (diamondback moth) assessed as mortality at 60 ug/disc after 48 hr relative to control
[3] = system: Frankliniella occidentalis; assay: Insecticidal activity against adult Frankliniella occidentalis (western flower thrips) assessed as mortality at 37.5 ug/disc after 24 hr relative to control
Thrips palmi [4] = assay: Insecticidal activity against adult Thrips palmi assessed as mortality at 12.5 ug/disk after 72 hr relative to control
Frankliniella intonsa [5] = assay: Insecticidal activity against adult Frankliniella intonsa assessed as mortality at 37.5 ug/disk after 72 hr relative to control
Frankliniella intonsa [6] = assay: Insecticidal activity against adult Frankliniella intonsa assessed as mortality at 37.5 ug/disk after 24 hr relative to control
Plutella xylostella [7] = assay: Insecticidal activity against adult Plutella xylostella (diamondback moth) assessed as mortality at 600 ug/disc after 48 hr relative to control
Frankliniella intonsa [8] = assay: Insecticidal activity against adult Frankliniella intonsa assessed as mortality at 37.5 ug/disk after 48 hr relative to control
[9] = system: Frankliniella occidentalis; assay: Insecticidal activity against adult Frankliniella occidentalis (western flower thrips) assessed as mortality at 12.5 ug/disc after 72 hr relative to control
Nilaparvata lugens [10] = assay: Insecticidal activity against adult Nilaparvata lugens (brown planthopper) assessed as mortality at 600 ug/disc after 48 hr relative to control
Spodoptera litura [11] = assay: Insecticidal activity against adult Spodoptera litura assessed as mortality at 60 ug/disc after 24 hr relative to control
Frankliniella intonsa [12] = assay: Insecticidal activity against adult Frankliniella intonsa assessed as mortality at 25 ug/disk after 72 hr relative to control
[13] = system: Frankliniella occidentalis; assay: Insecticidal activity against adult Frankliniella occidentalis (western flower thrips) assessed as mortality at 12.5 ug/disc after 24 hr relative to control
Frankliniella intonsa [14] = assay: Insecticidal activity against adult Frankliniella intonsa assessed as mortality at 50 ug/disk after 72 hr relative to control
Thrips palmi [15] = assay: Insecticidal activity against adult Thrips palmi assessed as mortality at 25 ug/disk after 24 hr relative to control
Plutella xylostella [16] = assay: Insecticidal activity against adult Plutella xylostella (diamondback moth) assessed as mortality at 600 ug/disc after 24 hr relative to control
Nilaparvata lugens [17] = assay: Insecticidal activity against adult Nilaparvata lugens (brown planthopper) assessed as mortality at 60 ug/disc after 24 hr relative to control
Thrips palmi [18] = assay: Insecticidal activity against adult Thrips palmi assessed as mortality at 37.5 ug/disk after 48 hr relative to control
Frankliniella intonsa [19] = assay: Insecticidal activity against adult Frankliniella intonsa assessed as mortality at 50 ug/disk after 48 hr relative to control
Thrips palmi [20] = assay: Insecticidal activity against adult Thrips palmi assessed as mortality at 37.5 ug/disk after 72 hr relative to control
[21] = system: Frankliniella occidentalis; assay: Insecticidal activity against adult Frankliniella occidentalis (western flower thrips) assessed as mortality at 37.5 ug/disc after 48 hr relative to control
Nilaparvata lugens [22] = assay: Insecticidal activity against adult Nilaparvata lugens (brown planthopper) assessed as mortality at 600 ug/disc after 24 hr relative to control
Thrips palmi [23] = assay: Insecticidal activity against adult Thrips palmi assessed as mortality at 12.5 ug/disk after 48 hr relative to control
Frankliniella intonsa [24] = assay: Insecticidal activity against adult Frankliniella intonsa assessed as mortality at 12.5 ug/disk after 24 hr relative to control
Thrips palmi [25] = assay: Insecticidal activity against adult Thrips palmi assessed as mortality at 25 ug/disk after 72 hr relative to control
Thrips palmi [26] = assay: Insecticidal activity against adult Thrips palmi assessed as mortality at 37.5 ug/disk after 24 hr relative to control
Spodoptera litura [27] = assay: Insecticidal activity against adult Spodoptera litura assessed as mortality at 60 ug/disc after 48 hr relative to control
[28] = system: Frankliniella occidentalis; assay: Insecticidal activity against adult Frankliniella occidentalis (western flower thrips) assessed as mortality at 12.5 ug/disc after 48 hr relative to control
Thrips palmi [29] = assay: Insecticidal activity against adult Thrips palmi assessed as mortality at 75 ug/disk after 24 hr relative to control
Frankliniella intonsa [30] = assay: Insecticidal activity against adult Frankliniella intonsa assessed as mortality at 25 ug/disk after 24 hr relative to control
Thrips palmi [31] = assay: Insecticidal activity against adult Thrips palmi assessed as mortality at 12.5 ug/disk after 24 hr relative to control
Plutella xylostella [32] = assay: Insecticidal activity against adult Plutella xylostella (diamondback moth) assessed as mortality at 60 ug/disc after 24 hr relative to control
Frankliniella intonsa [33] = assay: Insecticidal activity against adult Frankliniella intonsa assessed as mortality at 12.5 ug/disk after 72 hr relative to control
Frankliniella intonsa [34] = assay: Insecticidal activity against adult Frankliniella intonsa assessed as mortality at 75 ug/disk after 24 hr relative to control
Thrips palmi [35] = assay: Insecticidal activity against adult Thrips palmi assessed as mortality at 25 ug/disk after 48 hr relative to control
Frankliniella intonsa [36] = assay: Insecticidal activity against adult Frankliniella intonsa assessed as mortality at 25 ug/disk after 48 hr relative to control
Thrips palmi [37] = assay: Insecticidal activity against adult Thrips palmi assessed as mortality at 50 ug/disk after 24 hr relative to control
Spodoptera litura [38] = assay: Insecticidal activity against adult Spodoptera litura assessed as mortality at 600 ug/disc after 24 hr relative to control
Nilaparvata lugens [39] = assay: Insecticidal activity against adult Nilaparvata lugens (brown planthopper) assessed as mortality at 60 ug/disc after 48 hr relative to control
Spodoptera litura [40] = assay: Insecticidal activity against adult Spodoptera litura assessed as mortality at 600 ug/disc after 48 hr relative to control
Frankliniella intonsa [41] = assay: Insecticidal activity against adult Frankliniella intonsa assessed as mortality at 12.5 ug/disk after 48 hr relative to control
Thrips palmi [42] = assay: Insecticidal activity against adult Thrips palmi assessed as mortality at 50 ug/disk after 48 hr relative to control

## C=C1CCOC1=O [TULIPALINE A]
[1]
  mortality at 75 µg/disc: 100%
Plutella xylostella [2]
  mortality at 60 µg/disc: 0%
[3]
  mortality at 37.5 µg/disc: 52%
Thrips palmi [4]
  mortality at 12.5 µg/disc: 20%
Frankliniella intonsa [5]
  mortality at 37.5 µg/disc: 76%
Frankliniella intonsa [6]
  mortality at 37.5 µg/disc: 58%
Plutella xylostella [7]
  mortality at 600 µg/disc: 50%
Frankliniella intonsa [8]
  mortality at 37.5 µg/disc: 66%
[9]
  mortality at 12.5 µg/disc: 12%
Nilaparvata lugens [10]
  mortality at 600 µg/disc: 30%
Spodoptera litura [11]
  mortality at 60 µg/disc: 0%
Frankliniella intonsa [12]
  mortality at 25 µg/disc: 48%
[13]
  mortality at 12.5 µg/disc: 4%
Frankliniella intonsa [14]
  mortality at 50 µg/disc: 94%
Thrips palmi [15]
  mortality at 25 µg/disc: 14%
Plutella xylostella [16]
  mortality at 600 µg/disc: 0%
Nilaparvata lugens [17]
  mortality at 60 µg/disc: 0%
Thrips palmi [18]
  mortality at 37.5 µg/disc: 94%
Frankliniella intonsa [19]
  mortality at 50 µg/disc: 70%
Thrips palmi [20]
  mortality at 37.5 µg/disc: 100%
[21]
  mortality at 37.5 µg/disc: 100%
Nilaparvata lugens [22]
  mortality at 600 µg/disc: 0%
Thrips palmi [23]
  mortality at 12.5 µg/disc: 14%
Frankliniella intonsa [24]
  mortality at 12.5 µg/disc: 0%
Thrips palmi [25]
  mortality at 25 µg/disc: 90%
Thrips palmi [26]
  mortality at 37.5 µg/disc: 56%
Spodoptera litura [27]
  mortality at 60 µg/disc: 0%
[28]
  mortality at 12.5 µg/disc: 8%
Thrips palmi [29]
  mortality at 75 µg/disc: 100%
Frankliniella intonsa [30]
  mortality at 25 µg/disc: 34%
Thrips palmi [31]
  mortality at 12.5 µg/disc: 2%
Plutella xylostella [32]
  mortality at 60 µg/disc: 0%
Frankliniella intonsa [33]
  mortality at 12.5 µg/disc: 0%
Frankliniella intonsa [34]
  mortality at 75 µg/disc: 100%
Thrips palmi [35]
  mortality at 25 µg/disc: 70%
Frankliniella intonsa [36]
  mortality at 25 µg/disc: 48%
Thrips palmi [37]
  mortality at 50 µg/disc: 80%
Spodoptera litura [38]
  mortality at 600 µg/disc: 0%
Nilaparvata lugens [39]
  mortality at 60 µg/disc: 0%
Spodoptera litura [40]
  mortality at 600 µg/disc: 20%
Frankliniella intonsa [41]
  mortality at 12.5 µg/disc: 0%
Thrips palmi [42]
  mortality at 50 µg/disc: 100%
